Assay results as given in the NIST ThermoML archive (doi:10.1016/j.jct.2013.10.031).

Assay: wn = mass fraction of the nth substance listed
Settings: Gas, Burnett expansion method

FCC(F)(F)F [1,1,1,2-tetrafluoroethane] + CCC
Settings	mass density [kg/m3]
304.25 K, 324.7 kPa, w2 = 0.45	8.75837
304.25 K, 423.5 kPa, w2 = 0.45	11.6666
304.25 K, 550.2 kPa, w2 = 0.45	15.5404
304.25 K, 710 kPa, w2 = 0.45	20.7007
306.96 K, 235.2 kPa, w2 = 0.65	5.2834
306.96 K, 309.8 kPa, w2 = 0.65	7.0255
306.96 K, 406.3 kPa, w2 = 0.65	9.3418
306.96 K, 530 kPa, w2 = 0.65	12.4219
306.96 K, 1095.4 kPa, w2 = 0.55	36.0371
306.97 K, 260.5 kPa, w2 = 0.55	6.5188
306.97 K, 673.4 kPa, w2 = 0.55	20.3802
306.97 K, 686.8 kPa, w2 = 0.65	16.5173
306.97 K, 865 kPa, w2 = 0.55	27.1004
306.97 K, 880.8 kPa, w2 = 0.65	21.9632
306.98 K, 343.1 kPa, w2 = 0.55	8.6681
306.98 K, 449.3 kPa, w2 = 0.55	11.5262
306.98 K, 519.6 kPa, w2 = 0.55	15.3262
307 K, 1113.5 kPa, w2 = 0.65	29.2029
307.04 K, 1304.3 kPa, w2 = 0.6	37.3883
307.05 K, 823.4 kPa, w2 = 0.6	21.1446
307.06 K, 286.9 kPa, w2 = 0.6	6.763
307.06 K, 376.9 kPa, w2 = 0.6	8.993
307.06 K, 492.8 kPa, w2 = 0.6	11.9584
307.06 K, 640 kPa, w2 = 0.6	15.901
307.06 K, 1046.1 kPa, w2 = 0.6	28.116
308.12 K, 266.9 kPa, w2 = 0.5	6.72365
308.12 K, 346.4 kPa, w2 = 0.5	8.95632
308.12 K, 447.5 kPa, w2 = 0.5	11.9301
308.12 K, 577.6 kPa, w2 = 0.5	15.8911
308.12 K, 742.5 kPa, w2 = 0.5	21.1679
308.13 K, 944.9 kPa, w2 = 0.5	28.196
308.14 K, 1188.3 kPa, w2 = 0.5	37.5563
308.15 K, 263.5 kPa, w2 = 0.45	6.89941
308.2 K, 1234.2 kPa, w2 = 0.45	38.5343
308.21 K, 980.9 kPa, w2 = 0.45	28.9282
308.22 K, 346.6 kPa, w2 = 0.45	9.18817
308.22 K, 454.6 kPa, w2 = 0.45	12.2393
308.22 K, 592.6 kPa, w2 = 0.45	16.3032
308.22 K, 766.7 kPa, w2 = 0.45	21.7165
308.23 K, 960.1 kPa, w2 = 0.4	29.795
308.24 K, 751.6 kPa, w2 = 0.4	22.3672
308.24 K, 1208.1 kPa, w2 = 0.4	39.6876
308.25 K, 447.1 kPa, w2 = 0.4	12.6056
308.25 K, 581.8 kPa, w2 = 0.4	16.7913
308.26 K, 197.5 kPa, w2 = 0.4	5.33332
308.26 K, 260.1 kPa, w2 = 0.4	7.10429
308.26 K, 341.6 kPa, w2 = 0.4	9.46322
311.01 K, 747.3 kPa, w2 = 0.65	17.8403
311.01 K, 956.7 kPa, w2 = 0.65	23.7227
311.01 K, 1206.7 kPa, w2 = 0.65	31.545
311.02 K, 256.8 kPa, w2 = 0.65	5.8063
311.02 K, 338 kPa, w2 = 0.65	7.5979
311.02 K, 383.5 kPa, w2 = 0.55	9.3582
311.02 K, 443.1 kPa, w2 = 0.65	10.0895
311.02 K, 500.4 kPa, w2 = 0.55	12.444
311.02 K, 577.7 kPa, w2 = 0.65	13.4164
311.02 K, 837.9 kPa, w2 = 0.55	22.003
311.02 K, 1067.2 kPa, w2 = 0.55	29.258
311.02 K, 1334.9 kPa, w2 = 0.55	38.9056
311.03 K, 650.6 kPa, w2 = 0.55	16.547
311.06 K, 1343.8 kPa, w2 = 0.6	37.8297
311.07 K, 294.6 kPa, w2 = 0.6	6.8432
311.07 K, 386.9 kPa, w2 = 0.6	9.1
311.07 K, 505.8 kPa, w2 = 0.6	12.1
311.07 K, 657.2 kPa, w2 = 0.6	16.0896
311.07 K, 846.4 kPa, w2 = 0.6	21.3948
311.07 K, 1076.1 kPa, w2 = 0.6	28.4489
312.09 K, 1147.3 kPa, w2 = 0.4	36.0778
312.09 K, 1427.9 kPa, w2 = 0.4	48.057
312.1 K, 240.2 kPa, w2 = 0.4	6.45834
312.1 K, 415.1 kPa, w2 = 0.4	11.4592
312.1 K, 542.2 kPa, w2 = 0.4	15.2643
312.1 K, 703.7 kPa, w2 = 0.4	20.3326
312.1 K, 904.5 kPa, w2 = 0.4	27.0838
312.11 K, 316.2 kPa, w2 = 0.4	8.60266
312.14 K, 1384.5 kPa, w2 = 0.45	44.9611
312.16 K, 1108.9 kPa, w2 = 0.45	33.7517
312.17 K, 679.1 kPa, w2 = 0.45	19.022
312.17 K, 873 kPa, w2 = 0.45	25.3381
312.18 K, 403.4 kPa, w2 = 0.45	10.7201
312.18 K, 524.7 kPa, w2 = 0.45	14.2797
312.19 K, 309.2 kPa, w2 = 0.45	8.04778
312.23 K, 1062.8 kPa, w2 = 0.5	30.8635
312.24 K, 293.9 kPa, w2 = 0.5	7.35936
312.24 K, 386.2 kPa, w2 = 0.5	9.80302
312.24 K, 650.6 kPa, w2 = 0.5	17.3937
312.24 K, 835.8 kPa, w2 = 0.5	23.1694
312.24 K, 1330.8 kPa, w2 = 0.5	41.1106
312.25 K, 502.5 kPa, w2 = 0.5	13.0579
315.01 K, 615.4 kPa, w2 = 0.65	14.1721
315.01 K, 795.5 kPa, w2 = 0.65	18.8451
315.01 K, 1017.2 kPa, w2 = 0.65	25.0585
315.01 K, 1280.7 kPa, w2 = 0.65	33.3212
315.02 K, 274.4 kPa, w2 = 0.65	6.0676
315.02 K, 360.8 kPa, w2 = 0.65	8.015
315.02 K, 472.6 kPa, w2 = 0.65	10.6578
315.06 K, 855 kPa, w2 = 0.55	22.0047
315.06 K, 1090.2 kPa, w2 = 0.55	29.2605
315.06 K, 1366.4 kPa, w2 = 0.55	38.9077
315.07 K, 509.9 kPa, w2 = 0.55	12.4444
315.07 K, 663.2 kPa, w2 = 0.55	16.5479
315.08 K, 389.6 kPa, w2 = 0.55	9.3584
315.09 K, 296.5 kPa, w2 = 0.55	7.0377
315.09 K, 1068.9 kPa, w2 = 0.6	27.4868
315.1 K, 289.6 kPa, w2 = 0.6	6.6116
315.1 K, 498.6 kPa, w2 = 0.6	11.6903
315.1 K, 648.9 kPa, w2 = 0.6	15.5452
315.1 K, 837.4 kPa, w2 = 0.6	20.6708
315.1 K, 1341.8 kPa, w2 = 0.6	36.5492
315.11 K, 380.8 kPa, w2 = 0.6	8.7915
315.98 K, 1580.4 kPa, w2 = 0.5	50.2225
316.02 K, 947.3 kPa, w2 = 0.4	28.0242
316.02 K, 1201.7 kPa, w2 = 0.4	37.3297
316.03 K, 251.6 kPa, w2 = 0.4	6.68246
316.03 K, 331.4 kPa, w2 = 0.4	8.9013
316.03 K, 434.8 kPa, w2 = 0.4	11.857
316.03 K, 568 kPa, w2 = 0.4	15.7941
316.03 K, 737 kPa, w2 = 0.4	21.0384
316.03 K, 1496.5 kPa, w2 = 0.4	49.7241
316.07 K, 1279.9 kPa, w2 = 0.5	37.6931
316.09 K, 1628 kPa, w2 = 0.45	55.7253
316.11 K, 1015.3 kPa, w2 = 0.5	28.294
316.11 K, 1322.4 kPa, w2 = 0.45	41.8324
316.12 K, 496.6 kPa, w2 = 0.45	13.2868
316.12 K, 641.4 kPa, w2 = 0.45	17.6986
316.12 K, 825.1 kPa, w2 = 0.45	23.5754
316.12 K, 1051.5 kPa, w2 = 0.45	31.4039
316.13 K, 382.7 kPa, w2 = 0.45	9.97465
316.13 K, 614 kPa, w2 = 0.5	15.945
316.13 K, 793.6 kPa, w2 = 0.5	21.2396
316.14 K, 359.6 kPa, w2 = 0.5	8.98623
316.14 K, 471.1 kPa, w2 = 0.5	11.9702
319.94 K, 1816.9 kPa, w2 = 0.4	64.6378
319.97 K, 1488.2 kPa, w2 = 0.4	48.5219
319.98 K, 935.7 kPa, w2 = 0.4	27.3455
319.98 K, 1189.8 kPa, w2 = 0.4	36.4256
319.99 K, 326.1 kPa, w2 = 0.4	8.68561
319.99 K, 428.1 kPa, w2 = 0.4	11.5696
319.99 K, 559.5 kPa, w2 = 0.4	15.4113
319.99 K, 726.9 kPa, w2 = 0.4	20.5286
320 K, 1619.8 kPa, w2 = 0.5	49.4434
320.03 K, 1304.5 kPa, w2 = 0.5	37.1152
320.05 K, 1030.2 kPa, w2 = 0.5	27.8617
320.07 K, 802.1 kPa, w2 = 0.5	20.9155
320.08 K, 360.7 kPa, w2 = 0.5	8.84905
320.08 K, 473.5 kPa, w2 = 0.5	11.7874
320.08 K, 618.5 kPa, w2 = 0.5	15.7015
320.08 K, 1320 kPa, w2 = 0.45	39.4284
320.08 K, 1636.4 kPa, w2 = 0.45	52.5203
320.09 K, 814.3 kPa, w2 = 0.45	22.2206
320.09 K, 1044.1 kPa, w2 = 0.45	29.5994
320.1 K, 367.3 kPa, w2 = 0.45	9.40149
320.1 K, 481.7 kPa, w2 = 0.45	12.5232
320.1 K, 628.6 kPa, w2 = 0.45	16.6813
